Reference: US10485800B2, “Mixed lineage kinase inhibitors for HIV/AIDS therapies” (UNIVERSITY OF ROCHESTER, priority 2012, dated 2019)

Biological target: MLK3 (Homo sapiens (Human), UniProt Q16584)
Assay: Radiometric filter plate MLK3 assay
Format: biochemical
Conditions: 2 μM cold ATP (Km), 1 μM inactive MKK7b, twenty minute incubation; read-out: MK3 IC50
Experimental: After a twenty minute incubation, the reactions were washed through filter plates and read on a scintillation counter. Results are shown in Table 9 below, in which +++ indicates ≤0.1 μM, ++ indicates >0.1 μM and ≤1 μM, and + indicates >1 μM.

Chain of MLK3 (Q16584 whole entry): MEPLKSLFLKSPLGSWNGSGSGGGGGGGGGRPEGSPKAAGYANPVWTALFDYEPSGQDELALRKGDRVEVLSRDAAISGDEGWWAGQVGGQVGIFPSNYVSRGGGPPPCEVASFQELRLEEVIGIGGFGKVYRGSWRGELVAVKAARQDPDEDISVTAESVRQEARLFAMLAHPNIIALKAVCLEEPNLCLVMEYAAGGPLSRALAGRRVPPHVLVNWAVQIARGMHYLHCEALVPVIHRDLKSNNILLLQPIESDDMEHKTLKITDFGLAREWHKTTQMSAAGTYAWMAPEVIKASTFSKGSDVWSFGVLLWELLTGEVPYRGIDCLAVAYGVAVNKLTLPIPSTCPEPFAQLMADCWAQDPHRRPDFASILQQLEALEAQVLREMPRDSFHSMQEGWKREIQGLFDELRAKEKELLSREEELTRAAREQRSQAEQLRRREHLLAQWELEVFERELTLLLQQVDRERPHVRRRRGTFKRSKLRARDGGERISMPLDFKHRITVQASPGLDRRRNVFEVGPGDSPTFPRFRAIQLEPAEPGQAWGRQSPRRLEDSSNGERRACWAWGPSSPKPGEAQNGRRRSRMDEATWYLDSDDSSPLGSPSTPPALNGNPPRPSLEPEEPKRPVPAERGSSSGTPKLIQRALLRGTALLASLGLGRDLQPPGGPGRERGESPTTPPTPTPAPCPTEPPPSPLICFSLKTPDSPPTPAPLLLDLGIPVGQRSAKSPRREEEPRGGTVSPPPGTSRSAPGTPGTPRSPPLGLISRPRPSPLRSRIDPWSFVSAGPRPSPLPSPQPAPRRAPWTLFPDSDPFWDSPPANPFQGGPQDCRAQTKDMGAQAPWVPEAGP

Structure (SMILES)	IC50 [nM]
CS(=O)(=O)Nc1ccc(-c2cnc3[nH]cc(-c4ccc5[nH]ccc5c4)c3c2)cc1 [Example 11, N-(4-(3-(1H-indol-5-yl)-1H-pyrrolo[2,3-b]pyridin-5-yl)phenyl)methanesulfonamide]	< 100
COc1cc(-c2cnc3[nH]cc(-c4ccc(N)cc4)c3c2)cc(OC)c1OC [Example 15, 4-(5-(3,4,5-trimethoxyphenyl)-1H-pyrrolo[2,3-b]pyridin-3-yl)aniline]	< 100
COc1cc(-c2cnc3[nH]cc(-c4ccc(NC(C)=O)cc4)c3c2)cc(OC)c1OC [Example 16, N-(4-(5-(3,4,5-trimethoxyphenyl)-1H-pyrrolo[2,3-b]pyridin-3-yl)phenyl)acetamide]	< 100
CN(C)c1ccc(-c2cnc3[nH]cc(-c4ccc(F)c(Cl)c4)c3c2)cn1 [Example 22, 5-(3-(3-chloro-4-fluorophenyl)-1H-pyrrolo[2,3-b]pyridin-5-yl)-N,N-dimethylpyridin-2-amine]	> 1000
Nc1ccc(-c2cnc3[nH]cc(-c4ccc(F)c(Cl)c4)c3c2)cn1 [Example 29, 5-(3-(3-chloro-4-fluorophenyl)-1H-pyrrolo[2,3-b]pyridin-5-yl)pyridin-2-amine]	> 1000
COc1ccc(-c2cnc3[nH]cc(-c4ccc5[nH]ccc5c4)c3n2)cc1OC [Example 37, 2-(3,4-dimethoxyphenyl)-7-(1H-indol-5-yl)-5H-pyrrolo[3,2-b]pyrazine]	< 100
COc1cc(-c2cnc3[nH]cc(-c4ccc5[nH]ccc5c4)c3n2)ccc1N [Example 38, 4-(7-(1H-indol-5-yl)-5H-pyrrolo[3,2-b]pyrazin-2-yl)-2-methoxyaniline]	< 100
COc1cc(-c2cnc3[nH]cc(-c4ccc5[nH]ccc5c4)c3n2)ccc1OCCN1CCOCC1 [Example 39, 4-(2-(4-(7-(1H-indol-5-yl)-5H-pyrrolo[3,2-b]pyrazin-2-yl)-2-methoxyphenoxy)ethyl)morpholine]	< 100
COc1cc(-c2cnc3[nH]c(=O)n(-c4ccc5[nH]ccc5c4)c3n2)cc(OC)c1OC [Example 40, 1-(1H-indol-5-yl)-6-(3,4,5-trimethoxyphenyl)-1H-imidazo[4,5-b]pyrazin-2(3H)-one]	< 100
Cn1ccc2cc(-n3c(=O)[nH]c4ncc(-c5ccc(O)cc5)nc43)ccc21 [Example 42, 6-(4-hydroxyphenyl)-1-(1-methyl-1H-indol-5-yl)-1H-imidazo[4,5-b]pyrazin-2(3H)-one]	> 1000
COc1ccc(-c2cnc3[nH]c(=O)n(-c4ccc5[nH]ccc5c4)c3n2)cc1F [Example 49, 6-(3-fluoro-4-methoxyphenyl)-1-(1H-indol-5-yl)-1H-imidazo[4,5-b]pyrazin-2(3H)-one]	> 1000
O=c1[nH]c2ncc(-c3ccc4cc[nH]c4c3)nc2n1-c1ccc2[nH]ccc2c1 [Example 56, 1-(1H-indol-5-yl)-6-(1H-indol-6-yl)-1H-imidazo[4,5-b]pyrazin-2(3H)-one]	> 1000
COc1cc(-c2cnc3[nH]c(=O)n(-c4ccc5[nH]ccc5c4)c3n2)ccc1OCCN1CCOCC1 [Example 57, 1-(1H-indol-5-yl)-6-(3-methoxy-4-(2-morpholinoethoxy)phenyl)-1H-imidazo[4,5-b]pyrazin-2(3H)-one]	< 100
O=c1[nH]c2ncc(-c3cc(F)c(O)c(F)c3)nc2n1-c1ccc2[nH]ccc2c1 [Example 59, 6-(3,5-difluoro-4-hydroxyphenyl)-1-(1H-indol-5-yl)-1H-imidazo[4,5-b]pyrazin-2(3H)-one]	< 100
COc1cc(-c2cnc3[nH]c(=O)n(-c4ccc5[nH]ccc5c4)c3n2)cc(OC)c1O [Example 62, 6-(4-hydroxy-3,5-dimethoxyphenyl)-1-(1H-indol-5-yl)-1H-imidazo[4,5-b]pyrazin-2(3H)-one]	< 100
COc1cc(OC)cc(-c2cnc3[nH]c(=O)n(-c4ccc5[nH]ccc5c4)c3n2)c1 [Example 65, 6-(3,5-dimethoxyphenyl)-1-(1H-indol-5-yl)-1H-imidazo[4,5-b]pyrazin-2(3H)-one]	> 1000
COc1ccc(-n2c(=O)[nH]c3ncc(-c4ccc(OC)c(OC)c4)nc32)cc1 [Example 69, 6-(3,4-dimethoxyphenyl)-1-(4-methoxyphenyl)-1H-imidazo[4,5-b]pyrazin-2(3H)-one]	> 1000
COc1cc(-c2cnc3[nH]c(=O)n(-c4ccc5[nH]c(C)cc5c4)c3n2)cc(OC)c1OC [Example 72, 1-(2-methyl-1H-indol-5-yl)-6-(3,4,5-trimethoxyphenyl)-1H-imidazo[4,5-b]pyrazin-2(3H)-one]	< 100

Next, values leading:

IC50 [nM]	Structure (SMILES)
< 100	CC(=O)Nc1ccc(-c2cnc3[nH]cc(-c4ccc5[nH]ccc5c4)c3c2)cc1 [Example 3, N-(4-(3-(1H-indol-5-yl)-1H-pyrrolo[2,3-b]pyridin-5-yl)phenyl)acetamide]
< 100	COc1cc(-c2cnc3[nH]cc(-c4ccc5[nH]ccc5c4)c3c2)ccc1N [Example 5, 4-(3-(1H-indol-5-yl)-1H-pyrrolo[2,3-b]pyridin-5-yl)-2-methoxyaniline]
< 100	CN1CCN(c2cc(-c3cnc4[nH]cc(-c5ccc6[nH]ccc6c5)c4c3)ccn2)CC1 [Example 7, 3-(1H-indol-5-yl)-5-(2-(4-methylpiperazin-1-yl)pyridin-4-yl)-1H-pyrrolo[2,3-b]pyridine]
< 100	Nc1ccc(-c2cnc3[nH]cc(-c4ccc5[nH]ccc5c4)c3c2)cc1 [Example 8, 4-(3-(1H-indol-5-yl)-1H-pyrrolo[2,3-b]pyridin-5-yl)aniline]
< 100	COc1cc(-c2cnc3[nH]cc(-c4ccc(N(C)C)nc4)c3c2)cc(OC)c1OC [Example 19, N,N-dimethyl-5-(5-(3,4,5-trimethoxyphenyl)-1H-pyrrolo[2,3-b]pyridin-3-yl)pyridin-2-amine]
> 1000	Nc1ncc(-c2cnc3[nH]cc(-c4cnc(N)nc4)c3c2)cn1 [Example 20, 5,5′-(1H-pyrrolo[2,3-b]pyridine-3,5-diyl)dipyrimidin-2-amine]
< 100	COc1cc(-c2cnc3[nH]cc(-c4ccc5c(ccn5C)c4)c3c2)cc(OC)c1OC [Example 24, 3-(1-methyl-1H-indol-5-yl)-5-(3,4,5-trimethoxyphenyl)-1H-pyrrolo[2,3-b]pyridine]
< 100	COc1cc(-c2cnc3[nH]cc(-c4ccc(C(N)=O)cc4)c3c2)cc(OC)c1OC [Example 25, 4-(5-(3,4,5-trimethoxyphenyl)-1H-pyrrolo[2,3-b]pyridin-3-yl)benzamide]
< 100	COc1ccc(-c2cnc3[nH]cc(-c4ccc(C(N)=O)cc4)c3c2)cc1OC [Example 26, 4-(5-(3,4-dimethoxyphenyl)-1H-pyrrolo[2,3-b]pyridin-3-yl)benzamide]
< 100	CN(C)Cc1ccc(-c2cnc3[nH]cc(-c4ccc5[nH]ccc5c4)c3c2)cc1 [Example 33, 1-(4-(3-(1H-indol-5-yl)-1H-pyrrolo[2,3-b]pyridin-5-yl)phenyl)-N,N-dimethylmethanamine]
< 100	COc1cc(-c2cnc3[nH]cc(-c4ccc5[nH]ccc5c4)c3c2)ccc1OCCN1CCNCC1 [Example 34, 3-(1H-indol-5-yl)-5-(3-methoxy-4-(2-(piperazin-1-yl)ethoxy)phenyl)-1H-pyrrolo[2,3-b]pyridine]
> 1000	COc1cc(-c2cnc3[nH]cc(-c4ccc5[nH]ccc5c4)c3c2)ccc1OCCN(C)C [Example 35, 2-(4-(3-(1H-indol-5-yl)-1H-pyrrolo[2,3-b]pyridin-5-yl)-2-methoxyphenoxy)-N,N-dimethylethanamine]
> 1000	Cc1cc(C)cc(-c2cnc3[nH]c(=O)n(-c4ccc5c(ccn5C)c4)c3n2)c1 [Example 43, 6-(3,5-dimethylphenyl)-1-(1-methyl-1H-indol-5-yl)-1H-imidazo[4,5-b]pyrazin-2(3H)-one]
> 1000	O=c1[nH]c2ncc(-c3ccncc3)nc2n1-c1ccc2[nH]ccc2c1 [Example 44, 1-(1H-indol-5-yl)-6-(pyridin-4-yl)-1H-imidazo[4,5-b]pyrazin-2(3H)-one]
> 1000	Cc1cc(C)cc(-c2cnc3[nH]c(=O)n(-c4ccc5[nH]ccc5c4)c3n2)c1 [Example 46, 6-(3,5-dimethylphenyl)-1-(1H-indol-5-yl)-1H-imidazo[4,5-b]pyrazin-2(3H)-one]
> 1000	O=c1[nH]c2ncc(-c3cc(Cl)cc(Cl)c3)nc2n1-c1ccc2[nH]ccc2c1 [Example 48, 6-(3,5-dichlorophenyl)-1-(1H-indol-5-yl)-1H-imidazo[4,5-b]pyrazin-2(3H)-one]
< 100	COc1cc(-c2cnc3[nH]c(=O)n(-c4ccc5[nH]ccc5c4)c3n2)ccc1O [Example 55, 6-(4-hydroxy-3-methoxyphenyl)-1-(1H-indol-5-yl)-1H-imidazo[4,5-b]pyrazin-2(3H)-one]
< 100	COc1cc(-c2cnc3[nH]c(=O)n(-c4ccc5[nH]ccc5c4)c3n2)ccc1N [Example 60, 6-(4-amino-3-methoxyphenyl)-1-(1H-indol-5-yl)-1H-imidazo[4,5-b]pyrazin-2(3H)-one]
> 1000	O=c1[nH]c2ncc(-c3cc(F)cc(F)c3)nc2n1-c1ccc2[nH]ccc2c1 [Example 61, 6-(3,5-difluorophenyl)-1-(1H-indol-5-yl)-1H-imidazo[4,5-b]pyrazin-2(3H)-one]
> 1000	CN1CCN(c2cc(-c3cnc4[nH]c(=O)n(-c5ccc6[nH]ccc6c5)c4n3)ccn2)CC1 [Example 66, 1-(1H-indol-5-yl)-6-(2-(4-methylpiperazin-1-yl)pyridin-4-yl)-1H-imidazo[4,5-b]pyrazin-2(3H)-one]
> 1000	COc1ccc(-n2c(=O)[nH]c3ncc(-c4ccc(O)cc4)nc32)cc1 [Example 70, 6-(4-hydroxyphenyl)-1-(4-methoxyphenyl)-1H-imidazo[4,5-b]pyrazin-2(3H)-one]
> 1000	COc1ccc(-n2c(=O)[nH]c3ncc(-c4ccncc4)nc32)cc1 [Example 71, 1-(4-methoxyphenyl)-6-(pyridin-4-yl)-1H-imidazo[4,5-b]pyrazin-2(3H)-one]
> 1000	Cc1cc2cc(-n3c(=O)[nH]c4ncc(-c5cc(Cl)cc(Cl)c5)nc43)ccc2[nH]1 [Example 73, 6-(3,5-dichlorophenyl)-1-(2-methyl-1H-indol-5-yl)-1H-imidazo[4,5-b]pyrazin-2(3H)-one]
